Experimental data reported in US11000033B2, “Ketone or oxime compound, and herbicide” (NISSAN CHEMICAL CORPORATION, priority 2014, dated 2021).

Tests used:
Assay type in all cases: in vivo
Veronica persica [1] = experiment: Test Example 5: herbicidal effect by foliage application, plastic box (symbol R); conditions: 320 g/ha, 3 weeks after application
How it was run: (§1)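 After sowing into sterilized diluvial soil and growing two weeks under glass at 25° C. to 30° C., seedlings receive a uniform foliar spray of diluted emulsion. Damage is judged visually three weeks on.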

Digitaria ciliaris = experiment: Test Example 4: herbicidal effect by soil treatment (symbol F); conditions: application herbicide amount 320 g/ha
How it was run: (§2)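 Seeds were sown in sterilized diluvial soil, covered with about 1.5 cm of soil, and the soil surface was sprayed with a water-diluted emulsion of the compound at a predetermined rate. Plants grew in a greenhouse at 25° C. to 30° C.; effects were scored visually 3 weeks after application.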

Veronica persica [2] = experiment: Test Example 4: herbicidal effect by soil treatment (symbol R); conditions: application herbicide amount 320 g/ha
How it was run: as §2

[3] = test system: Echinochloa oryzacola Vasing.; experiment: Test Example 2: herbicidal activity, application during weed generation in submerged conditions (symbol A); conditions: Table 23; application herbicide amount 320 g/ha; grade 0-5 by criteria of Test Example 1
How it was run: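 Visual herbicidal ratings, taken three weeks after dosing, reflect post-emergence water-surface application to seedlings at one to two leaves. Conditions: co-sown weeds in alluvial soil flooded to 4 cm, greenhouse held at 25° C. to 30° C.; compound given as water-diluted emulsion at a fixed herbicide amount.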

Avena fatua = experiment: Test Example 5: herbicidal effect by foliage application, plastic box (symbol I); conditions: 320 g/ha, 3 weeks after application
How it was run: as §1

Lolium multiflorum Lam. = experiment: Test Example 5: herbicidal effect by foliage application, plastic box (symbol K); conditions: 320 g/ha, 3 weeks after application
How it was run: as §1

Monochoria vaginalis = experiment: Test Example 1: herbicidal activity, application before weed generation in submerged conditions (symbol C); conditions: application herbicide amount 320 g/ha
How it was run: (§3)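 Scores run 0 to 5 by herbicidal ratio, with 5 meaning 90% or more and 0 meaning 5% or lower, read 3 weeks after treatment. Compound was applied as a diluted emulsion to the water surface of submerged alluvial-soil pots on the day weed seeds were sown.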

[4] = test system: Echinochloa oryzacola Vasing.; experiment: Test Example 1: herbicidal activity, application before weed generation in submerged conditions (symbol A); conditions: application herbicide amount 320 g/ha
How it was run: as §3

beet = experiment: Test Example 5: effect on crop by foliage application, plastic box (symbol f); conditions: 320 g/ha, 3 weeks after application
How it was run: (§4)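 Soil: sterilized diluvial. Container: plastic box, 21 × 13 cm, 7 cm deep. Sowing: spot-like, ~1.5 cm cover. Growth: greenhouse, 25° C. to 30° C.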

rapeseed = experiment: Test Example 5: effect on crop by foliage application, plastic box (symbol g); conditions: 320 g/ha, 3 weeks after application
How it was run: as §4

corn = experiment: Test Example 5: effect on crop by foliage application, plastic box (symbol c); conditions: 320 g/ha, 3 weeks after application
How it was run: as §4

SMILES	R: Veronica persica, herbicidal effect (criteria of Test Example 1) (Veronica persica [1])	Herbicidal effect grade, F: Digitaria ciliaris (Digitaria ciliaris)	Herbicidal effect grade, R: Veronica persica (Veronica persica [2])	Herbicidal effect grade, A: Echinochloa oryzacola Vasing. [3]	I: Avena fatua, herbicidal effect (criteria of Test Example 1) (Avena fatua)	K: Lolium multiflorum Lam., herbicidal effect (criteria of Test Example 1) (Lolium multiflorum Lam.)	Herbicidal effect grade, C: Monochoria vaginalis (Monochoria vaginalis)	Herbicidal effect grade, A: Echinochloa oryzacola Vasing. [4]	f: beet, effect on crop (criteria of Test Example 1) (beet)	g: rapeseed, effect on crop (criteria of Test Example 1) (rapeseed)	c: corn, effect on crop (criteria of Test Example 1) (corn)
CCc1cc(Br)cc(C)c1C1=C(O)CC(CC(C)=O)C1=O (centres unmarked) [7-003]	0 (Herbicidal ratio of 5% or lower (almost no effect))	5 (Herbicidal ratio of 90% or more (almost completely withered))	0 (Herbicidal ratio of 5% or lower (almost no effect))	2 (Herbicidal ratio of 20% or higher and lower than 40%)	5 (Herbicidal ratio of 90% or more (almost completely withered))	5 (Herbicidal ratio of 90% or more (almost completely withered))	0 (Herbicidal ratio of 5% or lower (almost no effect))	5 (Herbicidal ratio of 90% or more (almost completely withered))	0 (Herbicidal ratio of 5% or lower (almost no effect))	0 (Herbicidal ratio of 5% or lower (almost no effect))	5 (Herbicidal ratio of 90% or more (almost completely withered))
CC(=O)CC1CC(O)=C(c2c(C)cc(-c3ccc(C(F)(F)F)cc3)cc2C)C1=O (centres unmarked) [7-005]	0 (Herbicidal ratio of 5% or lower (almost no effect))	5 (Herbicidal ratio of 90% or more (almost completely withered))	0 (Herbicidal ratio of 5% or lower (almost no effect))	1 (Herbicidal ratio of 5% or higher and lower than 20%)	2 (Herbicidal ratio of 20% or higher and lower than 40%)	5 (Herbicidal ratio of 90% or more (almost completely withered))	0 (Herbicidal ratio of 5% or lower (almost no effect))	3 (Herbicidal ratio of 40% or higher and lower than 70%)	0 (Herbicidal ratio of 5% or lower (almost no effect))	0 (Herbicidal ratio of 5% or lower (almost no effect))	4 (Herbicidal ratio of 70% or higher and lower than 90%)
COc1ccc(-c2cc(C)c(C3=C(O)CC(CC(C)=O)C3=O)c(C)c2)cc1 (centres unmarked) [7-006]	0 (Herbicidal ratio of 5% or lower (almost no effect))	0 (Herbicidal ratio of 5% or lower (almost no effect))	0 (Herbicidal ratio of 5% or lower (almost no effect))	2 (Herbicidal ratio of 20% or higher and lower than 40%)	3 (Herbicidal ratio of 40% or higher and lower than 70%)	5 (Herbicidal ratio of 90% or more (almost completely withered))	0 (Herbicidal ratio of 5% or lower (almost no effect))	3 (Herbicidal ratio of 40% or higher and lower than 70%)	0 (Herbicidal ratio of 5% or lower (almost no effect))	3 (Herbicidal ratio of 40% or higher and lower than 70%)	4 (Herbicidal ratio of 70% or higher and lower than 90%)
CC(=O)CC1CC(O)=C(c2c(C)cc(-c3ccc(C)cc3)cc2C)C1=O (centres unmarked) [7-007]	0 (Herbicidal ratio of 5% or lower (almost no effect))	4 (Herbicidal ratio of 70% or higher and lower than 90%)	0 (Herbicidal ratio of 5% or lower (almost no effect))	5 (Herbicidal ratio of 90% or more (almost completely withered))	4 (Herbicidal ratio of 70% or higher and lower than 90%)	5 (Herbicidal ratio of 90% or more (almost completely withered))	3 (Herbicidal ratio of 40% or higher and lower than 70%)	5 (Herbicidal ratio of 90% or more (almost completely withered))	0 (Herbicidal ratio of 5% or lower (almost no effect))	0 (Herbicidal ratio of 5% or lower (almost no effect))	5 (Herbicidal ratio of 90% or more (almost completely withered))
CC(=O)CC1CC(O)=C(c2c(C)cc(-c3ccc(Cl)cc3)cc2C)C1=O (centres unmarked) [7-008]	3 (Herbicidal ratio of 40% or higher and lower than 70%)	5 (Herbicidal ratio of 90% or more (almost completely withered))	0 (Herbicidal ratio of 5% or lower (almost no effect))	4 (Herbicidal ratio of 70% or higher and lower than 90%)	5 (Herbicidal ratio of 90% or more (almost completely withered))	5 (Herbicidal ratio of 90% or more (almost completely withered))	0 (Herbicidal ratio of 5% or lower (almost no effect))	4 (Herbicidal ratio of 70% or higher and lower than 90%)	0 (Herbicidal ratio of 5% or lower (almost no effect))	3 (Herbicidal ratio of 40% or higher and lower than 70%)	5 (Herbicidal ratio of 90% or more (almost completely withered))
CC#Cc1cc(C)c(C2=C(O)CC(CC(C)=O)C2=O)c(C)c1 (centres unmarked) [7-010]	4 (Herbicidal ratio of 70% or higher and lower than 90%)	5 (Herbicidal ratio of 90% or more (almost completely withered))	3 (Herbicidal ratio of 40% or higher and lower than 70%)	5 (Herbicidal ratio of 90% or more (almost completely withered))	4 (Herbicidal ratio of 70% or higher and lower than 90%)	5 (Herbicidal ratio of 90% or more (almost completely withered))	1 (Herbicidal ratio of 5% or higher and lower than 20%)	5 (Herbicidal ratio of 90% or more (almost completely withered))	0 (Herbicidal ratio of 5% or lower (almost no effect))	4 (Herbicidal ratio of 70% or higher and lower than 90%)	5 (Herbicidal ratio of 90% or more (almost completely withered))
CC(=O)CC1CC(O)=C(c2c(C)cc(C)cc2Br)C1=O (centres unmarked) [7-011]	1 (Herbicidal ratio of 5% or higher and lower than 20%)	5 (Herbicidal ratio of 90% or more (almost completely withered))	0 (Herbicidal ratio of 5% or lower (almost no effect))	3 (Herbicidal ratio of 40% or higher and lower than 70%)	3 (Herbicidal ratio of 40% or higher and lower than 70%)	5 (Herbicidal ratio of 90% or more (almost completely withered))	0 (Herbicidal ratio of 5% or lower (almost no effect))	2 (Herbicidal ratio of 20% or higher and lower than 40%)	0 (Herbicidal ratio of 5% or lower (almost no effect))	4 (Herbicidal ratio of 70% or higher and lower than 90%)	2 (Herbicidal ratio of 20% or higher and lower than 40%)
